Experimental data taken from patent US10836725B2, “Modulators of the integrated stress pathway” (Calico Life Sciences LLC, priority 2016, dated 2020).

These compounds were tested on ATF4 luciferase reporter (assay: ATF4-Luc assay in HEK293T cells carrying the ATF4 luciferase reporter (in vitro model of VWMD)). Conditions: 1 μg/mL tunicamycin, 7 hours, luminescence (One Glo).
Type: cell-based, human
In short: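 Stable HEK293T line with human ATF4 5′-UTR–firefly luciferase reporter treated with 1 μg/mL tunicamycin plus 200 nM compound for 7 h. Luminescence read; EC50 derived.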

SMILES	EC50 [µM]
O=C(COc1ccc(Cl)c(F)c1)NC12CC(C(=O)NCCc3c[nH]c4ccccc34)(C1)C2 [Compound 194]	< 0.25

Same assay, conditions: Homo sapiens, HEK-293T, 1 μg/mL tunicamycin, 7 hours, luminescence (One Glo)

EC50 [µM]	SMILES
> 2	Cc1cnc(CNC(=O)C23CC(NC(=O)COc4ccc(Cl)c(F)c4)(C2)C3)o1 [Compound 177, 3-[2-(4-chloro-3-fluorophenoxy)acetamido]-N-[(5-methyl-1,3-oxazol-2-yl)methyl]bicyclo[1.1.1]pentane-1-carboxamide]
> 2	Cc1cnc(CNC(=O)C23CC(NC(=O)COc4ccc(Cl)c(F)c4)(C2)C3)s1 [Compound 178, 3-[2-(4-chloro-3-fluorophenoxy)acetamido]-N-[(5-methyl-1,3-thiazol-2-yl)methyl]bicyclo[1.1.1]pentane-1-carboxamide]
> 2	Cn1ccc(CNC(=O)C23CC(NC(=O)COc4ccc(Cl)c(F)c4)(C2)C3)n1 [Compound 179, 3-[2-(4-chloro-3-fluorophenoxy)acetamido]-N-[(1-methyl-1H-pyrazol-3-yl)methyl]bicyclo[1.1.1]pentane-1-carboxamide]
> 2	O=C(COc1ccc(Cl)c(F)c1)NC12CC(C(=O)NCc3ccc(F)c(C(F)(F)F)c3)(C1)C2 [Compound 180, 3-[2-(4-chloro-3-fluorophenoxy)acetamido]-N-{[4-fluoro-3-(trifluoromethyl)phenyl]methyl}bicyclo [1.1.1]pentane-1-carboxamide]
> 2	O=C(COc1ccc(Cl)c(F)c1)NC12CC(C(=O)NCc3c(F)cc(Cl)cc3F)(C1)C2 [Compound 181, N-[(4-chloro-2,6-difluorophenyl)methyl]-3-[2-(4-chloro-3-fluorophenoxy)acetamido]bicyclo[1.1.1]pentane-1-carboxamide]
> 2	CCOc1ccccc1CNC(=O)C12CC(NC(=O)COc3ccc(Cl)c(F)c3)(C1)C2 [Compound 182, 3-[2-(4-chloro-3-fluorophenoxy)acetamido]-N-[(2-ethoxyphenyl)methyl]bicyclo[1.1.1]pentane-1-carboxamide]
> 2	C[C@H](NC(=O)C12CC(NC(=O)COc3ccc(Cl)c(F)c3)(C1)C2)c1ccc(Cl)cc1 [Compound 183, 3-[2-(4-chloro-3-fluorophenoxy)acetamido]-N-[(1S)-1-(4-chlorophenyl)ethyl]bicyclo[1.1.1]pentane-1-carboxamide]
> 2	Cn1nccc1CNC(=O)C12CC(NC(=O)COc3ccc(Cl)c(F)c3)(C1)C2 [Compound 184, 3-[2-(4-chloro-3-fluorophenoxy)acetamido]-N-[(1-methyl-1H-pyrazol-5-yl)methyl]bicyclo[1.1.1]pentane-1-carboxamide]
> 2	O=C(COc1ccc(Cl)c(F)c1)NC12CC(C(=O)NCc3ccc(F)c(F)c3)(C1)C2 [Compound 185, 3-[2-(4-chloro-3-fluorophenoxy)acetamido]-N-[(3,4-difluorophenyl)methyl]bicyclo[1.1.1]pentane-1-carboxamide]
> 2	Cn1ccnc1CNC(=O)C12CC(NC(=O)COc3ccc(Cl)c(F)c3)(C1)C2 [Compound 186, 3-[2-(4-chloro-3-fluorophenoxy)acetamido]-N-[(1-methyl-1H-imidazol-2-yl)methyl]bicyclo[1.1.1]pentane-1-carboxamide]
> 2	Cc1cccc([C@H](C)NC(=O)C23CC(NC(=O)COc4ccc(Cl)c(F)c4)(C2)C3)c1 [Compound 187, 3-[2-(4-chloro-3-fluorophenoxy)acetamido]-N-[(1S)-1-(3-methylphenyl)ethyl]bicyclo[1.1.1]pentane-1-carboxamide]
> 2	O=C(COc1ccc(Cl)c(F)c1)NC12CC(C(=O)NCCc3c[nH]cn3)(C1)C2 [Compound 188, 3-[2-(4-chloro-3-fluorophenoxy)acetamido]-N-[2-(1H-imidazol-4-yl)ethyl]bicyclo[1.1.1]pentane-1-carboxamide]
> 2	Cc1cccc([C@@H](C)NC(=O)C23CC(NC(=O)COc4ccc(Cl)c(F)c4)(C2)C3)c1 [Compound 189, 3-[2-(4-chloro-3-fluorophenoxy)acetamido]-N-[(1R)-1-(3-methylphenyl)ethyl]bicyclo[1.1.1]pentane-1-carboxamide]
> 2	Cc1ccc(C)c(CNC(=O)C23CC(NC(=O)COc4ccc(Cl)c(F)c4)(C2)C3)c1 [Compound 190, 3-[2-(4-chloro-3-fluorophenoxy)acetamido]-N-[(2,5-dimethylphenyl)methyl]bicyclo[1.1.1]pentane-1-carboxamide]
1 to 2	O=C(COc1ccc(Cl)c(F)c1)NC12CC(C(=O)NCc3cn4ccccc4n3)(C1)C2 [Compound 191, 3-[2-(4-chloro-3-fluorophenoxy)acetamido]-N-[(imidazo[1,2-a]pyridin-2-yl)methyl]bicyclo[1.1.1]pentane-1-carboxamide]
> 2	Cc1ccsc1CNC(=O)C12CC(NC(=O)COc3ccc(Cl)c(F)c3)(C1)C2 [Compound 192, 3-[2-(4-chloro-3-fluorophenoxy)acetamido]-N-[(3-methylthiophen-2-yl)methyl]bicyclo[1.1.1]pentane-1-carboxamide]
0.25 to 0.5	O=C(COc1ccc(Cl)c(F)c1)NC12CC(C(=O)NCc3ccc(Cl)c(F)c3)(C1)C2 [Compound 193, 3-[2-(4-chloro-3-fluorophenoxy)acetamido]-N-[(4-chloro-3-fluorophenyl)methyl]bicyclo[1.1.1]pentane-1-carboxamide]

EC50 [µM]	SMILES
> 2	COc1ccc(CNC(=O)C23CC(NC(=O)COc4ccc(Cl)c(F)c4)(C2)C3)cc1 [Compound 195, 3-[2-(4-chloro-3-fluorophenoxy)acetamido]-N-[(4-methoxyphenyl)methyl]bicyclo[1.1.1]pentane-1-carboxamide]
> 2	Cn1cnc(CNC(=O)C23CC(NC(=O)COc4ccc(Cl)c(F)c4)(C2)C3)c1 [Compound 196, 3-[2-(4-chloro-3-fluorophenoxy)acetamido]-N-[(1-methyl-1H-imidazol-4-yl)methyl]bicyclo[1.1.1]pentane-1-carboxamide]
0.5 to 1	Cc1ccccc1CNC(=O)C12CC(NC(=O)COc3ccc(Cl)c(F)c3)(C1)C2 [Compound 197, 3-[2-(4-chloro-3-fluorophenoxy)acetamido]-N-[(2-methylphenyl)methyl]bicyclo[1.1.1]pentane-1-carboxamide]
> 2	C[C@@H](NC(=O)C12CC(NC(=O)COc3ccc(Cl)c(F)c3)(C1)C2)c1ccc(Cl)cc1 [Compound 198, 3-[2-(4-chloro-3-fluorophenoxy)acetamido]-N-[(1R)-1-(4-chlorophenyl)ethyl]bicyclo[1.1.1]pentane-1-carboxamide]
> 2	NS(=O)(=O)c1ccc(CCNC(=O)C23CC(NC(=O)COc4ccc(Cl)c(F)c4)(C2)C3)cc1 [Compound 199, 3-[2-(4-chloro-3-fluorophenoxy)acetamido]-N-[2-(4-sulfamoylphenyl)ethyl]bicyclo[1.1.1]pentane-1-carboxamide]
> 2	COc1ncc(CNC(=O)C23CC(NC(=O)COc4ccc(Cl)c(F)c4)(C2)C3)cn1 [Compound 200, 3-[2-(4-chloro-3-fluorophenoxy)acetamido]-N-[(2-methoxypyrimidin-5-yl)methyl]bicyclo[1.1.1]pentane-1-carboxamide]
1 to 2	O=C(COc1ccc(Cl)c(F)c1)NC12CC(C(=O)NCc3noc(-c4ccccc4)n3)(C1)C2 [Compound 201, 3-[2-(4-chloro-3-fluorophenoxy)acetamido]-N-[(5-phenyl-1,2,4-oxadiazol-3-yl)methyl]bicyclo[1.1.1]pentane-1-carboxamide]
> 2	COc1ccc(CNC(=O)C23CC(NC(=O)COc4ccc(Cl)c(F)c4)(C2)C3)cc1OC [Compound 202, 3-[2-(4-chloro-3-fluorophenoxy)acetamido]-N-[(3,4-dimethoxyphenyl)methyl]bicyclo[1.1.1]pentane-1-carboxamide]
> 2	O=C(COc1ccc(Cl)c(F)c1)NC12CC(C(=O)NCc3ccccc3OCC(F)F)(C1)C2 [Compound 203, 3-[2-(4-chloro-3-fluorophenoxy)acetamido]-N-{[2-(2,2-difluoroethoxy)phenyl]methyl}bicyclo[1.1.1]pentane-1-carboxamide]
< 0.25	O=C(COc1ccc(Cl)c(F)c1)NC12CC(C(=O)NCCCc3ccc(F)cc3)(C1)C2 [Compound 204, 3-[2-(4-chloro-3-fluorophenoxy)acetamido]-N-[3-(4-fluorophenyl)propyl]bicyclo[1.1.1]pentane-1-carboxamide]
> 2	O=C(COc1ccc(Cl)c(F)c1)NC12CC(C(=O)NCc3cccnn3)(C1)C2 [Compound 205, 3-[2-(4-chloro-3-fluorophenoxy)acetamido]-N-[(pyridazin-3-yl)methyl]bicyclo[1.1.1]pentane-1-carboxamide]
> 2	COc1c(F)cc(CNC(=O)C23CC(NC(=O)COc4ccc(Cl)c(F)c4)(C2)C3)cc1F [Compound 206, 3-[2-(4-chloro-3-fluorophenoxy)acetamido]-N-[(3,5-difluoro-4-methoxyphenyl)methyl]bicyclo[1.1.1]pentane-1-carboxamide]
> 2	CC(C)Oc1ccc(CNC(=O)C23CC(NC(=O)COc4ccc(Cl)c(F)c4)(C2)C3)cc1 [Compound 207]
> 2	O=C(COc1ccc(Cl)c(F)c1)NC12CC(C(=O)NCc3nccs3)(C1)C2 [Compound 208, 3-[2-(4-chloro-3-fluorophenoxy)acetamido]-N-[(1,3-thiazol-2-yl)methyl]bicyclo[1.1.1]pentane-1-carboxamide]
> 2	COc1cc(F)cc(CNC(=O)C23CC(NC(=O)COc4ccc(Cl)c(F)c4)(C2)C3)c1 [Compound 209, 3-[2-(4-chloro-3-fluorophenoxy)acetamido]-N-[(3-fluoro-5-methoxyphenyl)methyl]bicyclo[1.1.1]pentane-1-carboxamide]
> 2	O=C(COc1ccc(Cl)c(F)c1)NC12CC(C(=O)NCc3ccccc3F)(C1)C2 [Compound 210, 3-[2-(4-chloro-3-fluorophenoxy)acetamido]-N-[(2-fluorophenyl)methyl]bicyclo[1.1.1]pentane-1-carboxamide]
